Values of other authors, collected in patent US8691302B2, “Peptide-containing seasoning” (Kikkoman Corporation, priority 2008, dated 2014).

How the values were obtained:
[1] = target: angiotensin converting enzyme (Homo sapiens, UniProt P12821); settings: reported in Non-patent Reference 1
[2] = reported in Non-patent Reference 1

angiotensin converting enzyme, sequence (P12821 30-1306, species assumed): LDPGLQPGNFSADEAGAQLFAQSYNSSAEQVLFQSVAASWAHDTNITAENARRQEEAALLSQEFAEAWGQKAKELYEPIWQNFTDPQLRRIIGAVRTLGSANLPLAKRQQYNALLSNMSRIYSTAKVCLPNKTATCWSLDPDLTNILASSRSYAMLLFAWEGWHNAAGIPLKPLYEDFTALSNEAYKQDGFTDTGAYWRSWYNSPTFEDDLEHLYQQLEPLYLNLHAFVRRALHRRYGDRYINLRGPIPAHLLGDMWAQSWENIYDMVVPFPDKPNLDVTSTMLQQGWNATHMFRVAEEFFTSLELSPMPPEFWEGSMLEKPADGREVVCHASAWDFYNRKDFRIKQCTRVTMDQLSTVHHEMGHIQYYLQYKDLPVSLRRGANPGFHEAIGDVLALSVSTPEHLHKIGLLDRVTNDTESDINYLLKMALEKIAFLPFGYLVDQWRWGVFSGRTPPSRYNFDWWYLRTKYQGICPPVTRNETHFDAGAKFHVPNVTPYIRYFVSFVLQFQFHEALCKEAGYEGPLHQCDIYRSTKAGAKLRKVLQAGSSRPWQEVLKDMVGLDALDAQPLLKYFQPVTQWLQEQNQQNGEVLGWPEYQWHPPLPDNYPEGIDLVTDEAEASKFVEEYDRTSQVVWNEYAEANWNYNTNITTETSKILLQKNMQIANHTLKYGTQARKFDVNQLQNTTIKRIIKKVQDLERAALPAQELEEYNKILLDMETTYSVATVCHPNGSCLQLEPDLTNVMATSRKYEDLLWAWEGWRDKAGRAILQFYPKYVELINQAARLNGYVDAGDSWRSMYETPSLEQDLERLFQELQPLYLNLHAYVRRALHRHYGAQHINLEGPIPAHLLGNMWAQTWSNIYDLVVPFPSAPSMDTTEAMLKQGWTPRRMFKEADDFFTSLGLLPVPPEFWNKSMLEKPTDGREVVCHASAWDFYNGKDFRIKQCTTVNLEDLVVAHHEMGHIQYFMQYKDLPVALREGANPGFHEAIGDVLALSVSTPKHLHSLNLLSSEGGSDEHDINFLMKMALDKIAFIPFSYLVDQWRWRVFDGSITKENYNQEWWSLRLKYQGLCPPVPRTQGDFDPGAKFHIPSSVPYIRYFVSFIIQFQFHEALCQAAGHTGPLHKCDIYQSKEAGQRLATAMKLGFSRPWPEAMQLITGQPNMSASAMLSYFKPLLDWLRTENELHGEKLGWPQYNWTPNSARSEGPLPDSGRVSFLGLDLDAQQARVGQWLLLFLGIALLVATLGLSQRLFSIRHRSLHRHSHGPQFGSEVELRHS

Substance | angiotensin converting enzyme inhibitory activity [1] | hypotensive activity [2]
Gly-Tyr | have an angiotensin converting enzyme inhibitory activity | a hypotensive activity
Ser-Tyr | have an angiotensin converting enzyme inhibitory activity | a hypotensive activity
